# US6569878B1, “Substituted 4-amino-thiazol-2-yl compounds as cyclin-dependent kinase inhibitors” (Agouron Pharmaceuticals Inc., priority 1997, dated 2003)
# Read-outs that look alike come from different tables or passages of the source.
# Columns and labels:
# [1] = biological target: T1, complex of human CDK4 and cyclin D3 (Homo sapiens, UniProt P11802); assay: Inhibition of CDK4/cyclin D retinoblastoma kinase activity (D-type cyclin is D3); assay type: biochemical; conditions: superscript a: D-type cyclin is D3; apparent Ki; read-out: Ki CDK 4/D
# T1 construct: made in house; host or cells: insect cells, co-infected with baculovirus
# T1 sequence (P11802 whole entry): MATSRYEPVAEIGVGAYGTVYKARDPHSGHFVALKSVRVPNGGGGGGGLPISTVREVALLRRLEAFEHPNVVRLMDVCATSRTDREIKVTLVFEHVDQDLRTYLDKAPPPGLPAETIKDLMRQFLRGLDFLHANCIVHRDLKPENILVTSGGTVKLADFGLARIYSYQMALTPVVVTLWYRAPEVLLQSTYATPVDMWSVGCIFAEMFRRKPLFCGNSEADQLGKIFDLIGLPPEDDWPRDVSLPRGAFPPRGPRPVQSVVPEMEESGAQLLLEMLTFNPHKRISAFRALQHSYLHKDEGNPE
# T1 sequence (P30281 whole entry partner): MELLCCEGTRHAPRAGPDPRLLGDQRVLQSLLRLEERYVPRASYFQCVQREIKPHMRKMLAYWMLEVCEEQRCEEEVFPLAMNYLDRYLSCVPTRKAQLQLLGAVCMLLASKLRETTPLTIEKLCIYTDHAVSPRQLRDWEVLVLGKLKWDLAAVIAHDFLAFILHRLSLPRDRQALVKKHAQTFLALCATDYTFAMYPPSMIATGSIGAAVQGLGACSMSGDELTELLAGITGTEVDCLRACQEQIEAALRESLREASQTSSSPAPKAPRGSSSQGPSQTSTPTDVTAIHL
# Method: Cyclin-dependent kinase activity was measured by quantifying the enzyme-catalyzed, time-dependent incorporation of radioactive phosphate from [^32P]ATP or [^33P]ATP into a protein substrate. […] Reactions were initiated with enzyme, incubated at 30° C., and terminated after 20 minutes by the addition of ethylenediaminetetraacetic acid (EDTA) to 250 mM. […] Radioactivity was quantified by exposing the dried membranes to a phosphorimager.
# (§1) Apparent Ki values were measured by assaying enzyme activity in the presence of different inhibitor compound concentrations and subtracting the background radioactivity measured in the absence of enzyme. The kinetic parameters (kcat, Km for ATP) were measured for each enzyme under the usual assay conditions by determining the dependence of initial rates on ATP concentration. Inhibition data were fit to an equation for competitive inhibition using Kaleidagraph (Synergy Software), or were fit to an equation for competitive tight-binding inhibition using the software KineTic (BioKin, Ltd.).
# Phosphorylated Rb substrate was captured by microfiltration on a nitrocellulose membrane and quantified using a phosphorimager as described above. For measurement of tight-binding inhibitors, the enzyme complex concentration was lowered to 5 nM, and the assay duration was extended to 60 minutes, during which the time-dependence of product formation was linear.
# [2] = biological target: T2, CDK2/cyclin A (Homo sapiens, UniProt P24941); assay: Inhibition of CDK2/cyclin A retinoblastoma kinase activity; assay type: biochemical; conditions: read-out: Ki CDK 2/A
# T2 construct: made in house; host or cells: CDK2: insect cells (baculovirus); cyclin A: E. coli, then limited proteolysis
# Method: Cyclin-dependent kinase activity was measured by quantifying the enzyme-catalyzed, time-dependent incorporation of radioactive phosphate from [^32P]ATP or [^33P]ATP into a protein substrate. Unless noted otherwise, assays were performed in 96-well plates in a total volume of 50 μL, in the presence of 10 mM HEPES (N-[2-hydroxyethyl]piperazine-N′-[2-ethanesulfonic acid]) (pH 7.4), 10 mM MgCl2, 25 μM adenosine triphosphate (ATP), 1 mg/mL ovalbumin, 5 μg/mL leupeptin, 1 mM dithiothreitol, 10 mM β-glycerophosphate, 0.1 mM sodium vanadate, 1 mM sodium fluoride, 2.5 mM ethylene glycol-bis(β-aminoethyl ether)-N,N,N′N′-tetraacetic acid (EGTA), 2% (v/v) dimethylsulfoxide, and 0.03-0.4 μCi [^32/33P]ATP per reaction. Reactions were initiated with enzyme, incubated at 30° C., and terminated after 20 minutes by the addition of ethylenediaminetetraacetic acid (EDTA) to 250 mM. The phosphorylated substrate was then captured on a nitrocellulose or phosphocellulose membrane using a 96-well filtration manifold, and unincorporated radioactivity was removed by repeated washing with 0.85% phosphoric acid. Radioactivity was quantified by exposing the dried membranes to a phosphorimager.
# as §1
# CDK2 was purified using published methodology (Rosenblatt et al., “Purification and Crystallization of Human Cyclin-dependent Kinase 2,” J. Mol. Biol., vol. 230, 1993, pp. 1317-1319) from insect cells that had been infected with a baculovirus expression vector. […] Purified, proteolyzed cyclin A was included in the assay at a three- to five-fold molar excess to CDK2. Alternatively, a complex of CDK2 and proteolyzed cyclin A was prepared and purified by gel filtration. The substrate for this assay was the same Rb substrate fragment used for the CDK4 assays, and the methodology of the CDK2/cyclin A and the CDK4/cyclin D3 assays was essentially the same, except that CDK2 was present at 150 nM or 5 nM. Ki values were measured as described above.
SMILES,Ki [1],Ki ([2]; μM),Ki [2]
"Cc1cccc(-c2ccccc2)c1C(=O)c1sc(Nc2ccc3nc[nH]c3c2)nc1N [C(67), [4-Amino-2-(1H-benzoimidazol-6-ylamino)-thiazol-5-yl]-(3-methyl-biphenyl-2-yl)-methanone]",3170 nM,13.2 µM,
Cc1ccc(C(=O)c2sc(Nc3ccccc3)nc2N)cc1 [I(12)],380 nM,,4.17 µM
"Cc1cccc([N+](=O)[O-])c1C(=O)c1sc(Nc2ccc3nc[nH]c3c2)nc1N [C(61), [4-Amino-2-(1H-benzoimidazol-6-ylamino)-thiazol-5-yl]-(2-methyl-6-nitro-phenyl)-methanone]",120 nM,,1.2 µM
"CCOC(=O)c1ccc(Nc2nc(N)c(C(=O)c3c(Cl)cccc3Cl)s2)cc1 [C(56), Ethyl 4-[4-Amino-5-(2,6-dichloro-benzoyl)-thiazol-2-ylamino]-benzoate]",195 nM,,1.02 µM
"CC(C)(C)OC(=O)N1CCN(c2ccc(Nc3nc(N)c(C(=O)c4c(Cl)cccc4Cl)s3)cc2)CC1 [C(105), 4-Amino-2-[4-(1-tert-butoxycarbonyl-piperazine-4-yl)-phenylamino]-thiazol-5-yl-(2,6-dichlorophenyl)-methanone]",60 nM,,1.06 µM
"Cc1ccsc1C(=O)c1sc(Nc2ccc(N3CCN(C(=O)OC(C)(C)C)CC3)cc2)nc1N [C(104), 4-Amino-2-[4-(1-tert-butoxycarbonyl-piperazine-4-yl)-phenylamino]-thiazol-5-yl-(3-methyl-thiophen-2-yl)-methanone]",190 nM,,0.73 µM
"Cc1c(C(=O)c2sc(Nc3ccc4nc[nH]c4c3)nc2N)ncn1C [C(74), [4-Amino-2-(1H-benzoimidazol-6-ylamino)-thiazol2-5-yl]-(1,5-dimethyl-1H-imidazol-4-yl)-methanone]",4800 nM,10.6 µM,
CC(=O)Nc1ccc(Cl)c(C(=O)c2sc(Nc3ccc(N4CCN(C(=O)OC(C)(C)C)CC4)cc3)nc2N)c1Cl [C(106)],134 nM,,1.46 µM
"Cc1c(C(=O)c2sc(Nc3ccc(S(N)(=O)=O)cc3)nc2N)ncn1C [C(76), 4-[4-Amino-5-(1,5-dimethyl-1H-imidazole-4-carbonyl)-thiazol-2-ylamino]-benzenesulfonamide]",2000 nM,,0.507 µM
"COC(=O)c1sc(Nc2ccc3nc[nH]c3c2)nc1N [A(12), 4-Amino-2-(1H-benzoimidazol-6-ylamino)-thiazole-5-carboxylic Acid Methyl Ester]",9400 nM,,4.1 µM
"Nc1nc(Nc2ccc(S(N)(=O)=O)cc2)sc1C(=O)[C@@H]1CCCN1C(=O)OCc1ccccc1 [C(65), 2S-[4-Amino-2-(4-sulfamoyl-phenylamino)-thiazole-5-carbonyl]-N-carbobenzyloxy-pyrrolidine]",38000 nM,14.3 µM,
"CCOC(=O)c1ccc(C(=O)c2sc(Nc3ccc(S(N)(=O)=O)cc3)nc2N)cc1 [C(34), Ethyl 4-[4-Amino-2-(4-sulfamoyl-phenylamino)-thiazole-5-carbonyl]-benzoate]",140 nM,,0.131 µM
"Cc1ccsc1C(=O)c1sc(Nc2ccc(-n3ccnc3)cc2)nc1N [C(42), [4-Amino-2-(4-imidazol-1-yl-phenylamino)-thiazol-5-yl]-(3-methyl-thiophen-2-yl)-methanone]",750 nM,,0.207 µM
"Nc1nc(Nc2ccc3nc[nH]c3c2)sc1C(=O)[C@@H]1CCCN1C(=O)OCc1ccccc1 [C(64), 2S-[4-Amino-2-(1H-benzoimidazol-5-yl-amino)-thiazole-5-carbonyl]-N-carbobenzyloxy-pyrrolidine]",44000 nM,42 µM,
Nc1nc(Nc2ccc(C(=O)O)cc2)sc1C(=O)c1c(Cl)cccc1Cl [I(25)],639 nM,,0.28 µM

# Continued, values first:
Ki [1],Ki ([2]; μM),Ki [2],SMILES
55 nM,,0.326 µM,"Nc1nc(Nc2ccc3nc[nH]c3c2)sc1C(=O)c1c(Cl)ccc([N+](=O)[O-])c1Cl [C(89), [4-Amino-2-(1H-benzoimidazol-6-ylamino)-thiazol-5-yl]-(2,6-dichloro-3-nitro-phenyl)-methanone]"
53 nM,,0.574 µM,"Cc1cccc(Br)c1C(=O)c1sc(Nc2ccc3nc[nH]c3c2)nc1N [C(66), [4-Amino-2-(1H-benzoimidazol-6-ylamino)-thiazol-5-yl]-(2-bromo-6-methyl-phenyl)-methanone]"
27 nM,,0.771 µM,"Cc1cc(C(=O)c2sc(Nc3ccc(N4CCN(C)CC4)cc3)nc2N)c(C)s1 [C(90), {4-Amino-2-[4-(4-methyl-piperazin-1-yl)-phenylamino]-thiazol-5-yl}-(2,5-dimethyl-thiophen-3-yl)-methanone]"
23 nM,,0.408 µM,"CC(=O)N1CCN(c2ccc(Nc3nc(N)c(C(=O)c4cc(C)sc4C)s3)cc2)CC1 [C(112), 2-[4-(1-Acetyl-piperazin-4-yl)-phenylamino]-4-amino-thiazol-5-yl-(2,5-dimethyl-thiophen-3-yl)-methanone]"
34 nM,,0.306 µM,"Cc1ccc(C)c(C(=O)c2sc(Nc3ccc4nc[nH]c4c3)nc2N)c1C [C(58), [4-Amino-2-(1H-benzoimidazol-6-ylamino)-thiazol-5-yl]-(2,3,6-trimethyl-phenyl)-methanone]"
85 nM,,0.0333 µM,"Nc1nc(Nc2ccc(S(N)(=O)=O)cc2)sc1C(=O)c1ccc2c(c1)CCC(=O)N2 [C(51), 4-[4-Amino-5-(2-oxo-1,2,3,4-tetrahydro-quinoline-6-carbonyl)-thiazol-2-ylamino]-benzenesulfonamide]"
32 nM,,0.083 µM,"Cc1cc([N+](=O)[O-])sc1C(=O)c1sc(Nc2ccc3nc[nH]c3c2)nc1N [C(78), [4-Amino-2-(1H-benzoimidazol-6-ylamino)-thiazol-5-yl]-(3-methyl-5-nitro-thiophen-2-yl)-methanone]"
13.5 nM,,0.169 µM,"Nc1nc(Nc2ccc3nc[nH]c3c2)sc1C(=O)c1sc(Br)cc1Br [C(72), [4-Amino-2-(1H-benzoimidazol-6-ylamino)-thiazol-5-yl]-(3,5-dibromo-thiophen-2-yl)-methanone]"
63 nM,,0.0094 µM,"Nc1nc(Nc2ccc(S(N)(=O)=O)cc2)sc1C(=O)c1cc(Cl)sc1Cl [C(92), 4-[4-Amino-5-(2,5-dichloro-thiophene-3-carbonyl)-thiazol-2-ylamino]-benzenesulfonamide]"
23 nM,,1.08 µM,"Nc1nc(Nc2ccc(N3CCOCC3)cc2)sc1C(=O)c1c(Cl)ccc([N+](=O)[O-])c1Cl [C(75), [4-Amino-2-(4-morpholin-4-yl-phenylamino)-thiazol-5-yl]-(2,6-dichloro-3-nitro-phenyl)-methanone]"
34 nM,,0.453 µM,"Cc1ccc(C(=O)c2sc(Nc3ccc(N4CCOCC4)cc3)nc2N)c(C)c1 [C(54), [4-Amino-2-(4-morpholin-4-yl-phenylamino)-thiazol-5-yl]-(2,4-dimethyl-phenyl)-methanone]"
72 nM,,1.71 µM,"Cc1cccc(C)c1C(=O)c1sc(Nc2ccc(N3CCOCC3)cc2)nc1N [C(62), [4-Amino-2-(4-morpholin-4-yl-phenylamino)-thiazol-5-yl]-(2,6-dimethyl-phenyl)-methanone]"
100 nM,,0.135 µM,"Cc1cncc(C)c1C(=O)c1sc(Nc2ccc(S(N)(=O)=O)cc2)nc1N [C(59), [4-Amino-2-(4-sulfamoyl-phenylamino)-thiazol-5-yl]-(3,5-dimethyl-pyridin-4-yl)-methanone]"
53 nM,,1.04 µM,"Cc1cccc(Br)c1C(=O)c1sc(Nc2ccc(N3CCOCC3)cc2)nc1N [C(84), [4-Amino-2-(4-morpholin-4-yl-phenylamino)-thiazol-5-yl]-(2-bromo-6-methyl-phenyl)-methanone]"
54 nM,,0.162 µM,"Nc1nc(Nc2ccc3nc[nH]c3c2)sc1C(=O)c1c(F)cccc1F [C(79), [4-Amino-2-(1H-benzoimidazol-6-ylamino)-thiazol-5-yl]-(2,6-difluoro-phenyl)-methanone]"
